How the values were obtained:
epi-5DS (5-deoxystrigol) = assay: LC-MS/MS levels of epi-5DS in rice root exudates and roots; type: in vivo; conditions: −Pi, 5 μM zaxinone
Method: For the analysis of SLs, one week-old seedlings were further transferred into 50 ml falcon tube (three seedlings per tube) containing Hoagland nutrient solution with K2HPO4·2H2O (+Pi) and grown in the growth cabinet for one week. The rice seedlings were then subjected to phosphate deficiency for another one week period. On the day of root exudates collection, rice seedlings were first treated with 5 μM zaxinone for 6 h and then root exudates and root tissues were collected from each tube for LC-MS/MS analysis and Striga bioassays.
For the quantification of 4-deoxyorobanchol in rice root exudates, 50 ml of root exudate spiked with 0.672 ng of D6-5-deoxystrigol, was brought on a 500 mg/3 ml fast SPE C18 column preconditioned with 6 ml of methanol and 6 ml of water. After washing with 6 ml of water, strigolactones were eluted in 5 ml of acetone. The 4-deoxyorobanchol fraction (acetone-water solution) was concentrated to SLs aqueous solution (˜1 ml), followed by extraction with 1 ml of ethyl acetate. Then 750 μl of 4-deoxyorobanchol enriched organic phase was transferred to a 1.5 ml tube and evaporated to dryness under vacuum. The residue was dissolved in 100 μl of acetonitrile:water (25:75, v:v) and filtered through a 0.22 μm filter for LC-MS/MS analysis.
For the quantification of 4-deoxyorobanchol in rice root, plant tissue material was lyophilized and ground. 30 mg root tissue spiked with 0.672 ng of D6-5-deoxystrigol was extracted with 2 ml of ethyl acetate in an ultrasound bath (Branson 3510 ultrasonic bath) for 15 minutes, followed by centrifugation for 8 minutes at 3800 rpm at 4° C. The supernatant was collected and the pellet was re-extracted with 2 ml of ethyl acetate. The two supernatants were then combined and dried under vacuum. The residue was dissolved in 100 μl of ethyl acetate and 2 ml of hexane. The resulting extract solution was loaded on a Silica gel SPE column (500 mg/3 ml) preconditioned with 3 ml of ethyl acetate and 3 ml of Hexane. After washing with 3 ml of Hexane, 4-deoxyorobanchol was eluted in 3 ml of ethyl acetate and evaporated to dryness under vacuum. The residue was re-dissolved in 200 μl of acetonitrile:water (25:75, v:v) and filtered through a 0.22 μm filter for LC-MS/MS analysis.
4-Deoxyorobanchol was analyzed by using HPLC-Q-Trap-MS/MS with MRM mode. Chromatographic separation was achieved on an Agilent 1200 HPLC system with an Acquity UPLC BEH C18 column (50×2.1 mm; 1.7 μm; Waters Corp.). Mobile phases consisted of water:acetonitrile (95:5, v:v, A) and acetonitrile (B), both containing 0.1% formic acid. […]
The levels of epi-5DS (5-deoxystrigol) in root exudates (FIG. 15A) and roots (FIG. 15B) for WT and zas mutant rice under −Pi conditions (phosphate deficient) with zaxinone (5 μM) treatment were determined by LC-MS/MS. […]

D17 = assay: qRT-PCR of D17 gene expression in rice roots after zaxinone treatment; type: in vivo, rice (Oryza sativa Nipponbare); conditions: −Pi, 6 h
Method: For the analysis of SL transcript levels in the zas mutant, one week-old seedlings were grown hydroponically in half-strength modified Hoagland nutrient solution with K2HPO4·2H2O (+Pi) and without K2HPO4·2H2O (−Pi) for 7 days. Seedlings were further treated with zaxinone for 6 h and tissues were collected.
Total RNA was extracted from the roots and shoots using a Qiagen Plant RNeasy Kit according to the manufacturer's instruction. cDNA was synthesized from 1 μg of total RNA using iScript cDNA Synthesis Kit (BIO-RAD Laboratories, Inc, 2000 Alfred Nobel Drive, Hercules, CA, Cat. No #170-8890) according to instructions in the user manual. For mycorrhizal samples, single-strand cDNA was synthesized from 1 μg of total RNA using Super-Script II (Invitrogen) according to instructions in the user manual. Primers used for real-time quantitative RT-PCR (qRT-PCR) analysis are listed below in Table 3. qRT-PCR was performed using SYBR Green Master Mix (Applied Biosystems; www.lifetechnologies.com) in a StepOnePlus (Life Technologies, Carlsbad, CA, USA). For mycorrhizal samples, qRT-PCR was performed using a Rotor-Gene Q 5plex HRM Platform (Qiagen). The 2-ΔCt method was used to calculate the relative gene expression levels and rice Ubiquitin (OsUBQ or OsRubQ1) gene was used as the internal control to normalize target gene expression.
14-day-old rice seedlings were transferred to new hydroponic pots containing fresh media with or without chemicals for 6 hours. SL biosynthetic (D27, D10, D17 and MAX1-Os900) gene expression were determined under −Pi conditions (phosphate deficient) with zaxinone (2.5 and 5 μM) treatment of both Nipponbare wild-type (WT) rice roots and zas mutant rice roots. The expression levels (1301) were detected by quantitative RT-PCR. Ubiquitin was used as a reference gene. Mock treatment (control) treatment consisted of 0.1% acetone. Bars (1302) show comparisons between the treatments and represent mean±SD (n=3). Decrease in SLs levels in the plants treated with zaxinone ranged from approximately 40% to 70%.

CC(=O)/C=C/C=C(C)/C=C/C1=C(C)C[C@@H](O)CC1(C)C [zaxinone, 3-OH-β-apo-13-carotenone]
decrease of epi-5DS level in root exudates, mock to zaxinone (epi-5DS (5-deoxystrigol); WT rice): around 75% | decrease of epi-5DS level in roots, mock to zaxinone (epi-5DS (5-deoxystrigol); WT rice): around 50% | decrease of epi-5DS level in root exudates, mock to zaxinone (epi-5DS (5-deoxystrigol); zas mutant rice): approximately 64% | decrease of epi-5DS level in roots, mock to zaxinone (epi-5DS (5-deoxystrigol); zas mutant rice): around 75% | decrease of D17 relative expression vs mock (D17; WT rice roots, 2.5 μM zaxinone): approximately 75% | D17 relative expression (D17; WT rice roots, 2.5 μM zaxinone, WT mock approx. 1.0): approximately 0.25 | decrease of D17 relative expression vs mock (D17; WT rice roots, 5.0 μM zaxinone): ~70% | D17 relative expression (D17; WT rice roots, 5.0 μM zaxinone, WT mock approx. 1.0): approximately 0.3 | decrease of D17 relative expression vs mock (D17; zas mutant rice roots, 2.5 μM zaxinone): approximately 60% | D17 relative expression (D17; zas mutant rice roots, 2.5 μM zaxinone, zas mock approx. 2.5): approximately 1.0 | decrease of D17 relative expression vs mock (D17; zas mutant rice roots, 5.0 μM zaxinone): ~68% | D17 relative expression (D17; zas mutant rice roots, 5.0 μM zaxinone, zas mock approx. 2.5): approximately 0.8
